According to patent publication US5508039A (priority 1994, dated 1996):

Tests used:
mice = conditions: cited from earlier work
insomniacs = conditions: oral; cited from earlier work
[1] = assay type: in vivo, human
Experimental: (§1) Therapeutic blood levels from 20 pg/ml to 1,000 pg/ml can be obtained from administration rates in the range of […]. […] Therapeutic blood levels can be achieved within approximately 2 hours, and peak blood concentrations are achieved at about 4-6 hours when the system is worn for 4-6 hours. […] The system application is easily adapted for shorter or longer duration treatments, but generally 6 hours is the nominal duration for treatment of most insomnias.

[2] = human, in vivo; cited from earlier work
[3] = general statement; cited from earlier work
clinical = assay type: in vivo, human
Experimental: as §1

[4] = cited from earlier work
[5] = test system: desynchronized blind persons; conditions: oral; cited from earlier work
breast cancer = conditions: cited from earlier work
[6] = test system: intraocular pressure in glaucoma; conditions: cited from earlier work
[7] = human, in vivo, topical or ocular

COc1ccc2[nH]cc(CCNC(C)=O)c2c1 [melatonin, N-acetyl-5-methoxytryptamine]
LD50 intraperitoneal (mice; intraperitoneal): 1375 mg/kg
LD50 intravenous (mice; intravenous): 180 mg/kg
mood, drive, alertness, and reaction time the next day (insomniacs): improved
time awake before sleep onset, sleep latency and number of awakenings (insomniacs): reduced the time awake before sleep onset and diminished sleep latency and number of awakenings
skin flux through living human skin [1]: 0.05-10 mg/cm^2 /hr
metabolic clearance [2]: approximately 1 liter per minute
terminal plasma elimination half-life [2]: approximately 45 minutes
volume of distribution [2]: approximately 40 liters
toxicity [3]: relatively non-toxic
desired and achievable system flux through the skin from a limited area (clinical): 0,025-1.0
Tmax (clinical; [7]): 4 to 6 h
half-life (clinical; [7]): 1 to 2 h
time to achieve therapeutic blood levels (clinical; in vivo): ≤ 2 h
absorption through the gastrointestinal tract ([4]; in vivo, po): readily absorbed
inactivation by liver of absorbed melatonin on first-pass ([4]; oral): ≤ 99%
timing of sleep cycles [5]: Improved timing of sleep cycles
inhibition of breast cancer (breast cancer): inhibit breast cancer
intraocular pressure [6]: lower intraocular pressure in glaucoma
